Measured values published in the NIST ThermoML archive (doi:10.1016/j.jct.2014.10.023).

Assay: excess molar enthalpy (molar enthalpy of mixing); xn = mol fraction of the nth substance listed
Conditions: 101 kPa, Liquid, Calvet calorimetry

[Li] [lithium] + [Ag]
Conditions	excess molar enthalpy [kcal/mol]
873 K, x1 = 0.5664	-2.79
873 K, x1 = 0.5985	-2.69
873 K, x1 = 0.6338	-2.57
873 K, x1 = 0.6719	-2.4
873 K, x1 = 0.7007	-2.25
873 K, x1 = 0.7274	-2.09
873 K, x1 = 0.7617	-1.87
873 K, x1 = 0.7867	-1.7
873 K, x1 = 0.8408	-1.22
873 K, x1 = 0.8972	-0.767
873 K, x1 = 0.932	-0.474
873 K, x1 = 0.9771	-0.0813
1253 K, x1 = 0.1002	-0.73
1253 K, x1 = 0.1043	-0.754
1253 K, x1 = 0.1097	-0.799
1253 K, x1 = 0.1152	-0.853
1253 K, x1 = 0.1205	-0.897
1253 K, x1 = 0.1287	-0.956
1253 K, x1 = 0.1355	-1.01
1253 K, x1 = 0.1461	-1.1
1253 K, x1 = 0.1583	-1.21
1253 K, x1 = 0.1698	-1.35
1253 K, x1 = 0.1884	-1.51
1253 K, x1 = 0.1995	-1.6
1253 K, x1 = 0.2187	-1.73
1253 K, x1 = 0.264	-1.85
1253 K, x1 = 0.2711	-1.88
1253 K, x1 = 0.2851	-1.95
1253 K, x1 = 0.2976	-2.02
1253 K, x1 = 0.3124	-2.12
1253 K, x1 = 0.3281	-2.2
1253 K, x1 = 0.3503	-2.29
1253 K, x1 = 0.3774	-2.42
1253 K, x1 = 0.4086	-2.52
1253 K, x1 = 0.4371	-2.61
1253 K, x1 = 0.4847	-2.72
1253 K, x1 = 0.5245	-2.75
